Assay results as given in patent US4599325A, “Substituted tyrosyl alanine dipeptide amides” (G. D. Searle & Co., priority 1985, dated 1986).

What was measured:
opiate receptors = assay: Opiate binding assay (displacement of 3H-Naloxone); set-up: species or system rat; conditions: Table 1, 3H-Naloxone, rat brain membranes
Method: The test compounds were evaluated for their ability to displace the binding of ^3 H-Naloxone to opiate receptors isolate from rat brain. Male rats [COBS CD(SD)BR] obtained from Charles River Laboratories (Portage, MI) were sacrificed by cervical dislocation. A purified homogenate of receptor membranes was prepared from the brains according to the method described by Chang and Cuatrecasas. (K.-J. Chang and P. Cuatrecases. Multiple Opiate Receptors: Enkephalins And Morphine Bind To Receptors Of Different Specificity. J. Biol. Chem. 254, 2610-2618 (1979).) The brains were homogenized in 10 volumes of 0.32M sucrose and centrifuged twice at 6,000×g for 15 minutes. Following centrifugation of the supernatants at 40,000×g for 30 minutes, the pellets were allowed to swell, then centrifuged at 6,000 and 40,000×g. This process was repeated. The final pellet was resuspended in 2 volumes of 50 mM tris HCl (pH 7.4). The homogenate was assayed for protein content according to the method of Itzhaki and Gill. R. F. Itzhaki and D. M. Gill. A Micro-Biuret Method for Estimating Proteins. Anal. Biochem. 9, […] (1964).
The binding of the test compounds to the receptor membrane preparation was measured using a modification of the method of Pert and Snyder. C. B. Pert and S. H. Snyder. Properties of Opiate-Receptor Binding in Rat Brain. Proc. Natl. Acad. Sci. 70, 2243-2247 (1973). The receptor assay was run using 1 nM ^3 H-Naloxone and 2 ml of tissue homogenate (0.5 mg/ml protein concentration). Levorphanol (1×10^-5 M) was used as the displacer for non-specific binding. Both the displacer and the test compounds were added in 0.02 ml volumes. The assay was run in 0.05M tris HCl (pH 7.4) ±100 mM NaCl. Total assay volume was 2.03 ml.
Samples were incubated at 25° C. for 60 min., cooled on ice 5 min. and subsequently filtered over Whatman GF/C glass fiber filters with 2.4 ml washes of cold buffer. The filters were then solubilized in 1 ml of NCS at 50° C. for 1 hour. After solubilization, the pH was adjusted with 0.1 ml of glacial acetic acid, 10 ml of PCS was added and the samples were counted in a Nuclear Chicago Mark II liquid scintillation counter. This method was used for the following test compounds: Example 4, Example 5, Example 27, Example 28, Example 38, Example 39, and the prior art compound (4).
A modification of this method was used for the following test compounds: Example 16, Example 17, Example 21, Example 22, Example 24, Example 30, Example 31. In this modification, the total assay volume was adjusted to 1.0 ml. Samples were cooled on ice for 10 minutes and dried at 50° C. for 30 minutes, then 10 mls of PCS was added and the samples counted in a liquid scinitillation counter.
The IC50 values, the concentration of the test compounds which inhibited ^3 H-Naloxone specific binding to the opiate receptor by 50%, were obtained from log-probit plots of concentration-response curves. D. J. Finney. Probit Analysis. Cambridge University Press, London, 1947.

mice = assay: Writhing assay (phenylbenzoquinone); format: in vivo, mouse; set-up: key to Writhing Mouse Subc., effect of the screening dose / Writhing Mouse Oral, effect of the screening dose: Active: The test compound was rated active if writhing was inhibited (as described) in 5 of 10 mice; conditions: Table 1; for Writhing Mouse Oral, effect of the screening dose: screening dose 10 mg/kg p.o.; for Writhing Mouse Subc., effect of the screening dose: screening dose 10 mg/kg s.c.
Method: Male Charles River albino mice (CD-1/HAM/1LR) weighing between 20 and 30 grams were used. Thirty minutes after subcutaneous or intragastric administration of the test compound (0.1 ml/10 gram body weight), 0.025% (w/v) phenylbenzoquinone was injected intraperitoneally (0.1 ml/10 gram body weight). Five minutes later, each mouse was placed in a large glass beaker and the number of writhes that occurred in the subsequent ten minutes is counted. A writhe consisted of dorsoflexion of the back, extension of the hindlimbs, and strong contraction of the abdominal musculature. The test compound was considered to have produced analgesia in a mouse if the number of writhes elicited by phenylbenzoquinone was equal to or less than one-half the median number of writhes recorded for the saline-treated group that day. The results were expressed as the number of mice (out of a possible ten) in which the test compound produced analgesia. The test compound was rated active if writhing was inhibited (as described) in 5 of 10 mice.
The receptor binding and biological properties of the following compounds of this invention are illustrated in Tables 1 and 2 utilizing the previously described opiate binding, hot plate, tail flick, writhing assay, cholera test or hypertensive test. The standard screening dose for the hot plate test of Table 1 was 10 mg/kg i.v. and for the writhing assay was 10 mg/kg s.c. and p.o.

[1] = system: spontaneous hypertensive rats (SHR); assay: Hypertensive test in spontaneous hypertensive rats (SHR); format: in vivo, rat; set-up: key to Antihypertensive Properties, Result: Active: Any compound that resulted in a decrease in arterial blood pressure of 20 mm Hg or greater was considered active; conditions: Table 3; 10 mg/kg intravenously, one unanesthetized male SHR
Method: A compound's ability to act as an antihypertensive agent was determined using spontaneous hypertensive rats (SHR). Male SHR were maintained in-house for 1 or more weeks before use and were between 11 and 16 weeks old. The test compound was administered intravenously and the initial mean arterial blood pressure was measured directly via an arterial catheter implanted immediately before administration of the compound. Blood pressure readings were made 5, 10 and 15 minutes after administration of the compound. […] Statistical comparisons were made using the unpaired student's test.
The following compounds of the invention were evaluated for their antihypertensive properties using the spontaneous hypertensive rat (SHR). […] The SHR test was essentially that described earlier. Each compound listed in Table 3, was administered intravenously to one unanesthetized, male, spontaneously hypertensive rat; the dosage was 10 mg/kg.

Compound | IC50 (opiate receptors) [nM] | Writhing Mouse Oral, effect of the screening dose (mice) | Writhing Mouse Subc., effect of the screening dose (mice) | Antihypertensive Properties, Result [1] | IC50 (opiate receptors; hydrochloride) [nM] | ED50 (mice; Mus musculus, sc, subcutaneous, read-out: Writhing Mouse Subc. (ED50)) [mg/kg] | Writhing Mouse Oral (ED50) (mice; oral, hydrochloride) [mg/kg]
2,6-dimethyltyrosyl-N-(3-cyclohexylpropyl)-D-alaninamide, (2-methylpropyl)carbonate (ester) [Example 27] | 2.7 | Active | Active | – | – | – | –
2,6-dimethyltyrosyl-N-(4-phenylbutyl)-D-alaninamide, hydrochloride [Example 43] | – | Active | Active | – | – | – | –
2,6-dimethyltyrosyl-N-[3-(2,6-dimethylphenyl)propyl]-D-alaninamide hydrochloride [Example 38] | 160 | Active | Active | – | – | – | –
2,6-dimethyltyrosyl-N-[3-(2,6-dimethylphenyl)propyl]-D-alaninamide, hydrochloride [Example 39] | 0.5 | Active | Active | – | – | – | –
2-methyltyrosyl-N-(3-phenylpropyl)-D-alaninamide, hydrochloride [Example 16] | – | – | – | Active | – | – | –
Cc1cc(O)cc(C)c1C[C@H](N)C(=O)N[C@H](C)C(=O)NCCCc1ccccc1.Cl [Example 4, 2,6-dimethyltyrosyl-N-(3-phenylpropyl)-D-alaninamide hydrochloride] | – | – | – | Active | 50 | 0.58 | 2.39
